Drawing on paper PMC6151550, “Inhibitory Effect of Selaginellins from Selaginella tamariscina (Beauv.) Spring against Cytochrome P450 and Uridine 5′-Diphosphoglucuronosyltransferase Isoforms on Human Liver Microsomes” (Molecules : A Journal of Synthetic Chemistry and Natural …, 2017), this text covers IC50 for 2 compounds.

What all share (assay type): in vitro ADME
The target of assay [1] is T1, CYP2B6 (Homo sapiens, UniProt P20813).
T1 construct: the incubation mixtures containing pooled HLMs (0.25 mg/mL, H2630, Xenotech); tissue Xenotech H2630; host or cells: pooled human liver microsomes
T1 sequence (P20813 1-491): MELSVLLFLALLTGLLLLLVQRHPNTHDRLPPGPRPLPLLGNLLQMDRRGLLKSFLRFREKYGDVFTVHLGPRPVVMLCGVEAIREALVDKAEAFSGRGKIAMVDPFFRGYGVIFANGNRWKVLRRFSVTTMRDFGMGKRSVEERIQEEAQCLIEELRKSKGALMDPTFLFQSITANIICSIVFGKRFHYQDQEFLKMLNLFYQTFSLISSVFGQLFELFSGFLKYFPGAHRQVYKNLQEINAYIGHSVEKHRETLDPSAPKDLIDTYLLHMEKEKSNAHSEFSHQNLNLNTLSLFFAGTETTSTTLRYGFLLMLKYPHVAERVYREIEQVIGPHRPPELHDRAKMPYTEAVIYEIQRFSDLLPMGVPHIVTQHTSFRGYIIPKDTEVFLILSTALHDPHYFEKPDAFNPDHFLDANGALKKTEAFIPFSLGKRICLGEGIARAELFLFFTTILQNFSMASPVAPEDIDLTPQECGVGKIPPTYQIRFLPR
Briefly: CYP2B6 inhibition (bupropion 4-hydroxylase) in human liver microsomes, substrate cocktail LC-MS/MS. As to the method:
(§1) The inhibitory effects of two selaginellins on the metabolism of ten P450 probe substrates were evaluated using previously reported method with minor modification. Phenacetin O-deethylase, coumarin 7-hydroxylase, bupropion 4-hydroxylase, amodiaquine N-deethylase, tolbutamide 4-hydroxylase, omeprazole 5-hydroxylase, dextromethorphan O-demethylase, chlorzoxazone 6-hydroxylase and midazolam 1′-hydroxylase activities were determined as probe activities for CYP1A2, CYP2A6, CYP2B6, CYP2C8, CYP2C9, CYP2C19, CYP2D6, CYP2E1 and […], respectively, using substrate cocktail incubation and tandem mass spectrometry (Table 2). Selaginellins were dissolved in methanol. The final concentrations of organic solvent (methanol) for the cocktail incubation conditions in all experiments were 1.0% (v/v). In brief, the incubation mixtures containing pooled HLMs (0.25 mg/mL, H2630, Xenotech), P450 probe substrate cocktail, and inhibitor (0, 0.5, 2, 5, 20 and 50 μM) were preincubated at 37 °C for 5 min. […] After mixing and centrifugation, aliquots were analyzed by liquid chromatography-tandem mass spectrometry (LC-MS/MS) as previous described. The CYP2J2 inhibitory effects of two selaginellins were also evaluated in pooled HLMs using previously reported method. […]

Assay [2] concerns the target T2, CYP2C9 (Homo sapiens, UniProt P11712).
T2 construct: the incubation mixtures containing pooled HLMs (0.25 mg/mL, H2630, Xenotech); tissue Xenotech H2630; host or cells: pooled human liver microsomes
Briefly: CYP2C9 inhibition (tolbutamide 4-hydroxylase) in human liver microsomes, substrate cocktail LC-MS/MS. Particulars: IC50 P450 isoform 2C9, pooled HLMs 0.25 mg/mL, tolbutamide 100 μM. The method, then: as §1

The target of assay [3] is T3, UGT1A6 (Homo sapiens, UniProt P19224).
T3 construct: from tissue; host or cells: human liver microsomes
T3 sequence (P19224 27-532): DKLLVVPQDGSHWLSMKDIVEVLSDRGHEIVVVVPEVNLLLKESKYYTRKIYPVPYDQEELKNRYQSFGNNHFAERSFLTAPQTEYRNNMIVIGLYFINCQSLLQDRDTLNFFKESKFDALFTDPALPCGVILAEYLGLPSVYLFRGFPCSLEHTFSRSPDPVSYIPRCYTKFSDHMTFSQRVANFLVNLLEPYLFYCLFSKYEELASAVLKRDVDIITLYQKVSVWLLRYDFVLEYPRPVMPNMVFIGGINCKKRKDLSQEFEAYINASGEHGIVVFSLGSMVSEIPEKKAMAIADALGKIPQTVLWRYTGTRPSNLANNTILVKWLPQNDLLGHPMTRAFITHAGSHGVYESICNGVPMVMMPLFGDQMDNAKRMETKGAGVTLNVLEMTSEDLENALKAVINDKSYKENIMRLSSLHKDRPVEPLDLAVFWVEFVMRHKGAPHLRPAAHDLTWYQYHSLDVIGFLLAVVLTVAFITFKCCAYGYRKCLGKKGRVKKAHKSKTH
Nature of the assay: UGT1A6 inhibition (N-acetylserotonin glucuronidation) in human liver microsomes, cocktail LC-MS/MS. The method, then: The inhibitory effects of two selaginellins on the metabolism of six UGT probe substrates were evaluated using previously reported method with minor modification. In brief, HLMs (0.25 mg/mL) were activated by incubation in the presence of alamethicin (25 μg/mL) for 15 min on ice. After the addition of UGT isoform-selective substrates and selaginellins (0, 0.5, 2, 5, 20 and 50 μM) the final concentrations of organic solvent (methanol) for the cocktail incubation conditions were 1.0% (v/v). The incubation reaction mixtures were pre-incubated for 5 min. The reaction was initiated by the addition of 5 mM UDPGA and further incubated for 60 min. All reactions were terminated by adding ice-cold acetonitrile containing estrone glucuronide (IS). After mixing and centrifugation, aliquots were injected into a LC-MS/MS as described previously (Table 2). All microsomal incubations were performed in triplicate.
The IC50 values (concentration of the inhibitor causing 50% inhibition of the original enzyme activity) were calculated using WinNonlin software (Pharsight, Mountain View, CA, USA): percentage of control activity = 100 × [1 − (I/(I + IC50))], where I is the inhibitor concentration, and IC50 is the inflection point on the curve.
A general note: Microsomes from liver hold many membrane-bound enzymes, among them those of drug oxidation.

T2 sequence (P11712 whole entry): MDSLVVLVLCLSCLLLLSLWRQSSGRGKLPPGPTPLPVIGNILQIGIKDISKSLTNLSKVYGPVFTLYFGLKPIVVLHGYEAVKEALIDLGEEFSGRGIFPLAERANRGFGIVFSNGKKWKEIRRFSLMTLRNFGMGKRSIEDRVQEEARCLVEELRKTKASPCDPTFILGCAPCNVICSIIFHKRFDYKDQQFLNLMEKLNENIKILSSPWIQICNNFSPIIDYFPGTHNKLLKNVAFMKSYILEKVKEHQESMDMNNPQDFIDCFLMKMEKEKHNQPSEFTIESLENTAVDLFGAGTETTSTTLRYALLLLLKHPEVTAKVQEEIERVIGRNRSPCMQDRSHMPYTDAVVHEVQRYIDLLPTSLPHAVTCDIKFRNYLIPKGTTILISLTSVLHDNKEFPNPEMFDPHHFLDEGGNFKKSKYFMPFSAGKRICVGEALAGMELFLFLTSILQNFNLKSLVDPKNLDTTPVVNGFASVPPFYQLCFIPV

Consider `COc1ccc(C(=C2C=CC(=O)C=C2)c2c(-c3ccc(O)cc3)ccc(CO)c2C#Cc2ccc(O)cc2)cc1` [Selaginellin M], for which the IC50 turned out to be 11.3 µM in assay [1], 3.9 µM in assay [2] and 36.5 µM in assay [3].
Turning to `O=C1C=CC(=C(c2ccc(O)cc2)c2c(-c3ccc(O)cc3)ccc(CO)c2C#Cc2ccc(O)cc2)C=C1` [Selaginellin], the IC50 was found to be 10.7 µM in assay [1], 1.2 µM in assay [2] and 25.3 µM in assay [3].

The term IC50 denotes the concentration at which inhibition is half-maximal. High values mean a need for much substance, low ones inhibition by little substance.
